Holding throughout (format): in vivo
Common to all, as to parameters: scale not given here

The subject of test [1] is Abutilon theophrasti medicus. Put plainly: Herbicidal effects in upland field soil treatment (Test Example 2). The conditions noted are these: 1000 g active ingredient per hectare, 21st day after treatment, criteria of Table 138. In short, it runs like this:
(§1)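 Herbicidal effect was rated visually against set criteria on the 21st day after a pre-emergence soil-surface spray of diluted wettable powder delivering 1000 g active ingredient per hectare (1000 L/ha). Seeds had been sown and covered in upland field soil; plants grew in a greenhouse.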

Test [2] has as its system Amaranthus viridis L. The description is as above. To be noted: 1000 g active ingredient per hectare, 21st day after treatment, criteria of Table 138. In short, it runs like this:
as §1

The test system of test [3] is Echinochloa crus-galli (L.) P. Beauv. var. crus-galli. As to the kind of experiment: Herbicidal effects in upland field foliar treatment (Test Example 3). To be noted: criteria of Table 138; for herbicidal effects on Echinochloa crus-galli (L.) P. Beauv. var. crus-galli: 1000 g of the active ingredient per hectare, 14th day after the treatment, wettable powder; for herbicidal effect (index) on Echinochloa crus-galli (L.) P. Beauv. var. crus-galli: 1000 g active ingredient per hectare, 14th day after treatment. The method, boiled down: (§2)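 Herbicidal activity is rated visually on a fixed scale 14 days after foliar application. Plants raised from seed in upland field soil for two weeks under glass receive a water dilution of a wettable powder at 1000 g a.i. per hectare in 1000 L/ha.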

Test [4] has as its system Abutilon theophrasti medicus. The description is as above. The conditions noted are these: criteria of Table 138; for herbicidal effects on Abutilon theophrasti medicus: 1000 g of the active ingredient per hectare, 14th day after the treatment, wettable powder; for herbicidal effect (index) on Abutilon theophrasti medicus: 1000 g active ingredient per hectare, 14th day after treatment. In short, it runs like this: as §2

Test [5] concerns Amaranthus viridis L. Described as above. To be noted: criteria of Table 138; for herbicidal effects on Amaranthus viridis L.: 1000 g of the active ingredient per hectare, 14th day after the treatment, wettable powder; for herbicidal effect (index) on Amaranthus viridis L.: 1000 g active ingredient per hectare, 14th day after treatment. The method, boiled down: as §2
The subject of test [6] is Scirpus juncoides Roxb. var. ohwianus. T. Koyama. Put plainly: Herbicidal effects in paddy field soil treatment (Test Example 1). The conditions noted are these: for Herbicidal effects index, Scirpus juncoides Roxb. var. ohwianus. T. Koyama: paddy field soil treatment, 1000 g of the active ingredient per hectare, wettable powder added dropwise on water surface, 21st day after treatment. In short, it runs like this: (§3)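 Scoring of herbicidal effect took place 21 days after treatment, using a rating scale, on plants grown in a greenhouse. The test compound, formulated as a wettable powder and diluted with water, had been applied dropwise to the flood water at 1000 g active ingredient per hectare, one day after sowing into puddled paddy soil held under 3 cm of water.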

Test [7] concerns Echinochloa oryzicola Vasing. The description is as above. The conditions noted are these: for Herbicidal effects index, Echinochloa oryzicola Vasing: paddy field soil treatment, 1000 g of the active ingredient per hectare, wettable powder added dropwise on water surface, 21st day after treatment. The method, boiled down: as §3
Test [8] deals with Monochoria vaginalis (Burm. f.) Presl var. plantaginea (Roxb.) Solms-Laub. Described as above. The conditions noted are these: for Herbicidal effects index, Monochoria vaginalis (Burm. f.) Presl var. plantaginea (Roxb.) Solms-Laub.: paddy field soil treatment, 1000 g of the active ingredient per hectare, wettable powder added dropwise on water surface, 21st day after treatment. The method, boiled down: as §3

The mark [9] stands for this setting: paddy field soil treatment (Test Example 1), criteria of Table 138.

Structures are written as SMILES.

Take `COc1ccccc1-n1c(=O)c(C(=O)C2=C(O)CCCC2=O)nc2cccnc21` [IV-52]: the “herbicidal effect (index) on Abutilon theophrasti medicus” value in test [1] is reported as 5. Further, the “herbicidal effect (index) on Amaranthus viridis L.” value with Amaranthus viridis L. [2] was 4. Also, in test [3], the “herbicidal effects on Echinochloa crus-galli (L.) P. Beauv. var. crus-galli” value was determined as 5. Also, the “herbicidal effects on Abutilon theophrasti medicus” value in test [4] is listed as 5. Besides, the “herbicidal effects on Amaranthus viridis L.” value with Amaranthus viridis L. [5] is 5. Moreover, the “herbicidal effect (index) on Scirpus juncoides Roxb. var. ohwianus. T. Koyama” value in test [6] (setting [9]) came out at 5. The “herbicidal effect (index) on Echinochloa oryzicola Vasing” value in test [7] (setting [9]) stood at 5. In addition, the “herbicidal effect (index) on Monochoria vaginalis (Burm. f.) Presl var. plantaginea (Roxb.) Solms-Laub.” value in test [8] (setting [9]) is 5.

Consider `CC(c1ccccc1)n1c(=O)c(C(=O)C2=C(O)CCCC2=O)nc2cccnc21` (stereo not drawn) [III-130], for which the “herbicidal effect (index) on Abutilon theophrasti medicus” value in test [1] came out at 5. The “herbicidal effect (index) on Amaranthus viridis L.” value in the test with Amaranthus viridis L. [2] came out at 5. The “herbicidal effects on Echinochloa crus-galli (L.) P. Beauv. var. crus-galli” value in test [3] came to 5. Besides, the “herbicidal effects on Abutilon theophrasti medicus” value in test [4] was 5. Moreover, the “herbicidal effects on Amaranthus viridis L.” value with Amaranthus viridis L. [5] came to 5. Moreover, the “Herbicidal effects index, Scirpus juncoides Roxb. var. ohwianus. T. Koyama” value in test [6] was 5. Further, the “Herbicidal effects index, Echinochloa oryzicola Vasing” value in test [7] is on record as 5. In addition, the “Herbicidal effects index, Monochoria vaginalis (Burm. f.) Presl var. plantaginea (Roxb.) Solms-Laub.” value (“Herbicidal effects index … (Roxb.) Solms-Laub.” for short) in test [8] was 5.

Consider `O=C1CCCC(O)=C1C(=O)c1nc2ccccc2n(-c2ccccn2)c1=O` [I-171], for which the “herbicidal effect (index) on Abutilon theophrasti medicus” value in test [1] and in test [4] was 5 throughout. Besides, the “herbicidal effect (index) on Amaranthus viridis L.” value in the test on Amaranthus viridis L. [2] and with Amaranthus viridis L. [5] was 5 in each case. Also, the “herbicidal effect (index) on Echinochloa crus-galli (L.) P. Beauv. var. crus-galli” value in test [3] is 5. Also, in test [6], the “Herbicidal effects index, Scirpus juncoides Roxb. var. ohwianus. T. Koyama” value came to 5. In addition, the “Herbicidal effects index, Echinochloa oryzicola Vasing” value in test [7] is reported as 5. The “Herbicidal effects index … (Roxb.) Solms-Laub.” value in test [8] was found to be 5.

On to `CC1(C)CCC(=O)C(C(=O)c2nc3cccnc3n(-c3cccc(C(F)(F)F)c3)c2=O)=C1O` [IV-40], for which the “herbicidal effect (index) on Abutilon theophrasti medicus” value in test [1] is given as 5. For the same compound, in the test with Amaranthus viridis L. [2], the “herbicidal effect (index) on Amaranthus viridis L.” value is reported as 5. Moreover, the “herbicidal effects on Echinochloa crus-galli (L.) P. Beauv. var. crus-galli” value in test [3] is on record as 5. In test [4], the “herbicidal effects on Abutilon theophrasti medicus” value worked out at 5. Further, the “herbicidal effects on Amaranthus viridis L.” value in the test with Amaranthus viridis L. [5] turned out to be 5. Moreover, in test [6], the “Herbicidal effects index, Scirpus juncoides Roxb. var. ohwianus. T. Koyama” value was determined as 5. The “Herbicidal effects index, Echinochloa oryzicola Vasing” value in test [7] is on record as 5. The “Herbicidal effects index … (Roxb.) Solms-Laub.” value in test [8] was 5.

For the compound `Cc1cnc(-n2c(=O)c(C(=O)C3=C(O)CCCC3=O)nc3ccccc32)s1` [I-380], the “herbicidal effect (index) on Abutilon theophrasti medicus” value in test [1] and in test [4] was 5 in each case. For the same compound, the “herbicidal effect (index) on Amaranthus viridis L.” value in the test on Amaranthus viridis L. [2] and in the test on Amaranthus viridis L. [5] was 5 throughout. Also, the “herbicidal effect (index) on Echinochloa crus-galli (L.) P. Beauv. var. crus-galli” value in test [3] is listed as 4. The “Herbicidal effects index, Scirpus juncoides Roxb. var. ohwianus. T. Koyama” value in test [6] was 5. Also, the “Herbicidal effects index, Echinochloa oryzicola Vasing” value in test [7] turned out to be 4. Moreover, in test [8], the “Herbicidal effects index … (Roxb.) Solms-Laub.” value is given as 5.

Regarding `COc1cc(-n2c(=O)c(C(=O)C3=C(O)CCCC3=O)nc3ccccc32)cc(OC)c1OC` [II-185], the “herbicidal effect (index) on Abutilon theophrasti medicus” value in test [1] is given as 5. The “herbicidal effect (index) on Amaranthus viridis L.” value in the test with Amaranthus viridis L. [2] is recorded as 5. Further, the “herbicidal effects on Echinochloa crus-galli (L.) P. Beauv. var. crus-galli” value in test [3] came to 4. Further, the “herbicidal effects on Abutilon theophrasti medicus” value in test [4] stood at 5. Moreover, the “herbicidal effects on Amaranthus viridis L.” value in the test on Amaranthus viridis L. [5] was 5. In addition, the “Herbicidal effects index, Scirpus juncoides Roxb. var. ohwianus. T. Koyama” value in test [6] is 5. The “Herbicidal effects index, Echinochloa oryzicola Vasing” value in test [7] is 4. Further, the “Herbicidal effects index … (Roxb.) Solms-Laub.” value in test [8] worked out at 5.

As for `COc1cc(OC)cc(-n2c(=O)c(C(=O)C3=C(O)CCCC3=O)nc3ccccc32)c1` [II-173], the “herbicidal effect (index) on Abutilon theophrasti medicus” value in test [1] is recorded as 4. Moreover, the “herbicidal effect (index) on Amaranthus viridis L.” value with Amaranthus viridis L. [2] is listed as 5. Also, in test [3], the “herbicidal effects on Echinochloa crus-galli (L.) P. Beauv. var. crus-galli” value was 4. Also, the “herbicidal effects on Abutilon theophrasti medicus” value in test [4] was determined as 5. Besides, in the test on Amaranthus viridis L. [5], the “herbicidal effects on Amaranthus viridis L.” value is reported as 5. Further, in test [6], the “Herbicidal effects index, Scirpus juncoides Roxb. var. ohwianus. T. Koyama” value is 5. Besides, in test [7], the “Herbicidal effects index, Echinochloa oryzicola Vasing” value is 5. Further, the “Herbicidal effects index … (Roxb.) Solms-Laub.” value in test [8] is reported as 5.

Regarding `O=C1CCCC(O)=C1C(=O)c1nc2ccccc2n(-c2cccnc2)c1=O` [I-185], the “herbicidal effect (index) on Abutilon theophrasti medicus” value in test [1] and in test [4] was 5 throughout. Further, the “herbicidal effect (index) on Amaranthus viridis L.” value in the test on Amaranthus viridis L. [2] and in the test with Amaranthus viridis L. [5] was 5 in each case. For the same compound, the “herbicidal effect (index) on Echinochloa crus-galli (L.) P. Beauv. var. crus-galli” value in test [3] is on record as 5. Moreover, in test [6], the “Herbicidal effects index, Scirpus juncoides Roxb. var. ohwianus. T. Koyama” value is on record as 5. Moreover, the “Herbicidal effects index, Echinochloa oryzicola Vasing” value in test [7] is recorded as 5. In test [8], the “Herbicidal effects index … (Roxb.) Solms-Laub.” value amounted to 5.

In the case of `CC1(C)CCC(=O)C(C(=O)c2nc3cccnc3n(-c3ccccc3)c2=O)=C1O` [IV-2], in test [1], the “herbicidal effect (index) on Abutilon theophrasti medicus” value is given as 5. In addition, the “herbicidal effect (index) on Amaranthus viridis L.” value in the test on Amaranthus viridis L. [2] is recorded as 5. In test [3], the “herbicidal effects on Echinochloa crus-galli (L.) P. Beauv. var. crus-galli” value was 5. Also, in test [4], the “herbicidal effects on Abutilon theophrasti medicus” value amounted to 5. Also, the “herbicidal effects on Amaranthus viridis L.” value in the test on Amaranthus viridis L. [5] came to 5. For the same compound, the “Herbicidal effects index, Scirpus juncoides Roxb. var. ohwianus. T. Koyama” value in test [6] came out at 5. Also, the “Herbicidal effects index, Echinochloa oryzicola Vasing” value in test [7] is on record as 5. For the same compound, the “Herbicidal effects index … (Roxb.) Solms-Laub.” value in test [8] is 5.

For `CC(CCn1c(=O)c(C(=O)C2=C(O)CCCC2=O)nc2cccnc21)=C(F)F` [III-232], the “herbicidal effect (index) on Abutilon theophrasti medicus” value in test [1] came to 5. Further, the “herbicidal effect (index) on Amaranthus viridis L.” value in the test on Amaranthus viridis L. [2] stood at 5. Moreover, the “herbicidal effects on Echinochloa crus-galli (L.) P. Beauv. var. crus-galli” value in test [3] amounted to 5. Also, the “herbicidal effects on Abutilon theophrasti medicus” value in test [4] was 5. For the same compound, the “herbicidal effects on Amaranthus viridis L.” value in the test on Amaranthus viridis L. [5] is reported as 5. Also, the “Herbicidal effects index, Scirpus juncoides Roxb. var. ohwianus. T. Koyama” value in test [6] was 5. In addition, the “Herbicidal effects index, Echinochloa oryzicola Vasing” value in test [7] was 5. Moreover, the “Herbicidal effects index … (Roxb.) Solms-Laub.” value in test [8] was 5.

Turning to `CCOC(=O)Cn1c(=O)c(C(=O)C2=C(O)CCCC2=O)nc2cccnc21` [III-96], in test [1], the “herbicidal effect (index) on Abutilon theophrasti medicus” value is 5. Further, the “herbicidal effect (index) on Amaranthus viridis L.” value in the test with Amaranthus viridis L. [2] is 5. Also, the “herbicidal effects on Echinochloa crus-galli (L.) P. Beauv. var. crus-galli” value in test [3] is 5. The “herbicidal effects on Abutilon theophrasti medicus” value in test [4] amounted to 5. The “herbicidal effects on Amaranthus viridis L.” value with Amaranthus viridis L. [5] came to 5. The “Herbicidal effects index, Scirpus juncoides Roxb. var. ohwianus. T. Koyama” value in test [6] amounted to 5. Moreover, the “Herbicidal effects index, Echinochloa oryzicola Vasing” value in test [7] was determined as 5. Besides, the “Herbicidal effects index … (Roxb.) Solms-Laub.” value in test [8] is reported as 5.

Turning to `O=C1CCCC(O)=C1C(=O)c1nc2cccnc2n(-c2ccc(C3CC3)cc2)c1=O` [IV-33], the “herbicidal effect (index) on Abutilon theophrasti medicus” value in test [1] is on record as 5. Further, the “herbicidal effect (index) on Amaranthus viridis L.” value in the test with Amaranthus viridis L. [2] was found to be 5. Moreover, the “herbicidal effects on Echinochloa crus-galli (L.) P. Beauv. var. crus-galli” value in test [3] is 5. The “herbicidal effects on Abutilon theophrasti medicus” value in test [4] is 5. Further, in the test on Amaranthus viridis L. [5], the “herbicidal effects on Amaranthus viridis L.” value was found to be 5. Also, the “Herbicidal effects index, Scirpus juncoides Roxb. var. ohwianus. T. Koyama” value in test [6] is on record as 5. Besides, the “Herbicidal effects index, Echinochloa oryzicola Vasing” value in test [7] is 5. Also, in test [8], the “Herbicidal effects index … (Roxb.) Solms-Laub.” value is recorded as 5.

The values are drawn from patent US8389523B2, “Substituted quinoxaline and an agrochemical composition thereof” (Kumiai Chemical Industry Co., Ltd., priority 2007, dated 2013).
